The results in this text go back to US11084818B2 (HEPO PHARMACEUTICAL CO., LTD., priority 2016, dated 2021).

For one assay, the target named is T1, hTLR8 (Homo sapiens, UniProt Q9NR97).
T1 construct: host or cells: HEK-Blue hTLR8 (HEK293-derived reporter line)
T1 sequence (Q9NR97 27-1041): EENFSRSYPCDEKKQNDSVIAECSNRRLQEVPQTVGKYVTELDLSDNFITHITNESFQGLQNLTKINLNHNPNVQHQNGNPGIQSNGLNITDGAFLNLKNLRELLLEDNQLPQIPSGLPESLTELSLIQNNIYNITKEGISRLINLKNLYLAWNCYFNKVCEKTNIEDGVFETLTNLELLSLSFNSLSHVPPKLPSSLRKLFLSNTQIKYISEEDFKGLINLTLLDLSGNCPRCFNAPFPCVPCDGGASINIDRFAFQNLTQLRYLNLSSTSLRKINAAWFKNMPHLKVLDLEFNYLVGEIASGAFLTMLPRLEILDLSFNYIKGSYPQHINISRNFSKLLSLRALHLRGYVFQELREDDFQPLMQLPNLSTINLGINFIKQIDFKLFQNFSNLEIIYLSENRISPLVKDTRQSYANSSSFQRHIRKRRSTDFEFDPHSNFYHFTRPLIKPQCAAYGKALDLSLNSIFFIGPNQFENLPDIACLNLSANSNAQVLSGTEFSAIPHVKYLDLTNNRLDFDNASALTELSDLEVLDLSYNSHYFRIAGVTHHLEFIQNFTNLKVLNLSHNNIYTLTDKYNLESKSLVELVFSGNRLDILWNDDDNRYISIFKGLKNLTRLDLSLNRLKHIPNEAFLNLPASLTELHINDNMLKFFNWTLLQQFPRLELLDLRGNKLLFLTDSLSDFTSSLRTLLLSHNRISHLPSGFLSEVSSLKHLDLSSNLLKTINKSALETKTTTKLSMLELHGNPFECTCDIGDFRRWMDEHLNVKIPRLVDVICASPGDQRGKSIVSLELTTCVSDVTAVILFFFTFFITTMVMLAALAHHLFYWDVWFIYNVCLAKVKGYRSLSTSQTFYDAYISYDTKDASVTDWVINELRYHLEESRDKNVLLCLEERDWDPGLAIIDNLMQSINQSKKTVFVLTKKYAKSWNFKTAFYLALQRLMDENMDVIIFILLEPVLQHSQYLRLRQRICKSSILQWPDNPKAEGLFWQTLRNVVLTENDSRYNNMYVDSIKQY
The assay can be described thus: Activation activity test of hTLR8 (HEK-Blue hTLR8 cells, QUANTI-Blue OD650). As to conditions: HEK-Blue hTLR8 cells, 24 hours incubation; read-out: TLR8 (EC50). It is filed as cell-based. The procedure:
(§1) Effect Example 1: Activation Activity Test of hTLR7 and hTLR8
(§2) Cell lines: HEK-Blue™ hTLR7 and HEK-Blue™ hTLR8 (InvivoGen Co.)
(§3) Primary reagents: QUANTI-Blue™ (InvivoGen) and ATPlite 1 Step (PerkinElmer)
(§4) Primary instruments: Automatic Liquid Handling Workstation (Labcyte, Model: Echo), Cell Counter (Countstar, IC1000) and Multifunctional Enzyme Marker (Molecular Device, Flexstation III).
(§5) 2.1 The tested compounds were formulated into a 60 mM concentrated stock solution in DMSO and stored in a nitrogen cabinet.
(§6) 2.3 The T150 cultured cells were taken out from the CO2 incubator and the cell culture supernatant was discarded. The cells were washed with PBS once, followed by addition of about 10 mL of the culture solution. The cells were dissociated by patting the cell culture flask, and gently blown to even by a pipette.
(§7) The cells were counted, and the cell suspension was adjusted to 200,000 cells/mL by the culture solution. Thereafter, 200 μL of diluted cells was added to each well in a 96-well plate containing the compound (40,000 cells/well).
(§8) 2.4 The compounds and cells were incubated in a 5% CO2 incubator at 37° C. for 24 hours.
(§9) 2.5 Compound activity assay: 20 μl of the cell supernatant of each well after induction was added to a cell culture plate containing 180 μL of reagent QUANTI-Blue™, and incubated at 37° C. for 1.5 hours. Thereafter, the optical density absorption (OD650) of each well at 650 nm was measured using a Multifunctional Enzyme Marker: Flexstation III.
(§10) 2.6 Compound Activity: OD650 values were analyzed using GraphPad Prism software and the dose-response curves for the compound were fitted to calculate the EC50 values of the compound.

The target in the next assay is T2, hTLR7 (Homo sapiens, UniProt Q9NYK1).
T2 construct: host or cells: HEK-Blue hTLR7 (HEK293-derived reporter line)
T2 sequence (Q9NYK1 27-1049): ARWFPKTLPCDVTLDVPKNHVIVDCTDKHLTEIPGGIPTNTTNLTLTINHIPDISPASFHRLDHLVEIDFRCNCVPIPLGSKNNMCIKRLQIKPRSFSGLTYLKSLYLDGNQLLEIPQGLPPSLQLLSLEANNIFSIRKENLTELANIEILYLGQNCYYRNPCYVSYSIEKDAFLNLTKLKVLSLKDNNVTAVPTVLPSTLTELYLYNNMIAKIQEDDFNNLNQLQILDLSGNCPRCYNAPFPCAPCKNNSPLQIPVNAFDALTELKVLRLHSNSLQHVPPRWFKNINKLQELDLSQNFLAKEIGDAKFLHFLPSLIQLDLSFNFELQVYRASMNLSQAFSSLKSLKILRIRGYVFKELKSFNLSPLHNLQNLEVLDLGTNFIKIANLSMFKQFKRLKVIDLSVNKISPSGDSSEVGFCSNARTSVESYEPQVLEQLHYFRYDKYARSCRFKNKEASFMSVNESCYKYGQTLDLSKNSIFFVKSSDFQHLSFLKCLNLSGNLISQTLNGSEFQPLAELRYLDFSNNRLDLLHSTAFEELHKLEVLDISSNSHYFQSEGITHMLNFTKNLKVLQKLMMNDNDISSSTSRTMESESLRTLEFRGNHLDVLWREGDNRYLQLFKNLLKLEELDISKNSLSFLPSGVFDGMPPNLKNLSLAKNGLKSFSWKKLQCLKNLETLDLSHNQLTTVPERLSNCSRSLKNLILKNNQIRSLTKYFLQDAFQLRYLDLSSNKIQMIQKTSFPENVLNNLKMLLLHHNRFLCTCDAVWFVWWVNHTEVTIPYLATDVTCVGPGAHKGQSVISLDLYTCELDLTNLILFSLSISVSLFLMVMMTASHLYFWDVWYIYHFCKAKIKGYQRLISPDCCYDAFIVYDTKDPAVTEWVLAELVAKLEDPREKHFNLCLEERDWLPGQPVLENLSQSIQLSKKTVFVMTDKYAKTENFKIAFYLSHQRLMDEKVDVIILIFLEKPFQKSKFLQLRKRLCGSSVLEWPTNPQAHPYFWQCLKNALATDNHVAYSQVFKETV
The assay can be described thus: Activation activity test of hTLR7 (HEK-Blue hTLR7 cells, QUANTI-Blue OD650). It is filed as cell-based. As to conditions: 24 hours incubation, read-out: TLR7 (EC50). As to the method:
as §1, §2, §3, §4, §5, §6, §7, §8, §9, §10

As to `COCCOc1ncc2[nH]c(=O)n(Cc3ccc(CN4C5CCC4CC5)cc3)c2n1` [Example 53, 9-(4-((7-azabicyclo[2.2.1]heptan-7-yl)methyl)benzyl)-2-(2-methoxyethoxy)-7,9-dihydro-8H-purin-8-one], the EC50 on hTLR8 is more than 100 µM; at hTLR7, 1 to 10 µM.
On to `COCCOc1ncc2[nH]c(=O)n(Cc3ccc(C(C)N4CCCC4)cc3)c2n1` (stereo not shown) [Example 14, 2-(2-methoxyethoxy)-9-(4-(1-(pyrrolidin-1-yl)ethyl)benzyl)-7,9-dihydro-8H-purin-8-one], for which the figures for the EC50 on hTLR8 and at hTLR7 were more than 100 µM and 0.001 to 1 µM, respectively.
In the case of `COCCOc1ncc2nc(N)n(Cc3ccc(CN4CCCC4)cc3)c2n1` [Example 61, 2-(2-methoxyethoxy)-9-(4-(pyrrolidin-1-ylmethyl)benzyl)-7,9-dihydro-8H-purin-8-amine], the concentration for a half-maximal effect (EC50) on hTLR8 is more than 100 µM; at hTLR7 it was 10 to 100 µM.
Consider `COCCOc1ncc2[nH]c(=O)n(Cc3ccc(CN4CCCC4)cc3F)c2n1` [Example 63, 2-(2-methoxyethoxy)-9-(2-fluoro-4-(pyrrolidin-1-ylmethyl)benzyl)-7,9-dihydro-8H-purin-8-one], for which the half-maximal effective concentration (EC50) was more than 100 µM at hTLR8 and 1 to 10 µM on hTLR7.
For the compound `COCCOc1ncc2[nH]c(=O)n(Cc3cccc(CN4CCCC4)c3)c2n1` [Example 18], the concentration for a half-maximal effect (EC50) is more than 100 µM at hTLR8 and 1 to 10 µM at hTLR7.
On to `CCOCCOc1ncc2[nH]c(=O)n(Cc3ccc(CN4CCCC4)cc3)c2n1` [Example 37, 2-(2-ethoxyethoxy)-9-(4-(pyrrolidin-1-ylmethyl)benzyl)-7,9-dihydro-8H-purin-8-one], for which the concentration for a half-maximal effect (EC50) at hTLR8 is more than 100 µM; on hTLR7, 1 to 10 µM.
In the same order, the values of `COCCOc1ncc2[nH]c(=O)n(Cc3cccc(CN4CCC[C@H]4C(=O)OC)c3)c2n1` [Example 24, methyl (3-((2-(2-methoxyethoxy)-8-oxo-7,8-dihydro-9H-purin-9-yl)methyl)benzyl)-L-pyrrolidine-2-carboxylate] are more than 100 µM and more than 100 µM.
In the same order, the values of `COCCOc1ncc2[nH]c(=O)n(Cc3ccc(CN4CCCC4)c(F)c3)c2n1` [Example 62, 2-(2-methoxyethoxy)-9-(3-fluoro-4-(pyrrolidin-1-ylmethyl)benzyl)-7,9-dihydro-8H-purin-8-one] are more than 100 µM and 1 to 10 µM.
For `O=c1[nH]c2cnc(OCCOCC3CC3)nc2n1Cc1ccc(CN2CCCC2)cc1` [Example 65, 9-(4-(pyrrolidin-1-ylmethyl)benzyl)-2-(2-(cyclopropylmethoxy)ethoxy)-7,9-dihydro-8H-purin-8-one], the EC50 on hTLR8 was more than 100 µM; on hTLR7 it was 1 to 10 µM.
For `O=c1[nH]c2cnc(OCCC3CC3)nc2n1Cc1cccc(CN2CCCC2)c1` [Example 29, 2-(2-cyclopropylethoxy)-9-(3-(pyrrolidin-1-ylmethyl)benzyl)-7,9-dihydro-8H-purin-8-one], the EC50 at hTLR8 and on hTLR7 was more than 100 µM each time.
On to `COCCOc1ncc2[nH]c(=O)n(Cc3cccc(CN4CCCCCC4)c3)c2n1` [Example 21, 2-(2-methoxyethoxy)-9-(3-(azepan-1-ylmethyl)benzyl)-7,9-dihydro-8H-purin-8-one], for which the figures for the EC50 on hTLR8 and on hTLR7 were more than 100 µM and 10 to 100 µM, respectively.
For `COCCOc1ncc2[nH]c(=O)n(Cc3ccc(CN4CC[C@@H](F)C4)cc3)c2n1` [Example 5, (R)-9-(4-((3-fluoropyrrolidin-1-yl)methyl)benzyl)-2-(2-methoxyethoxy)-7,9-dihydro-8H-purin-8-one], the half-maximal effective concentration (EC50) at hTLR8 was more than 100 µM; at hTLR7, 1 to 10 µM.
For the compound `CCN(CC)Cc1ccc(Cn2c(=O)[nH]c3cnc(OCCOC)nc32)cc1` [Example 10], the results for the EC50 on hTLR8 and at hTLR7 were more than 100 µM and 1 to 10 µM, respectively.
On the same counts, the results for `CCCCOc1ncc2[nH]c(=O)n(Cc3cccc(CN4CCCC4)c3)c2n1` [Example 27, 2-butoxy-9-(3-(pyrrolidin-1-ylmethyl)benzyl)-7,9-dihydro-8H-purin-8-one] are 10 to 100 µM and more than 100 µM.
In the same order, the values of `COCCOc1ncc2[nH]c(=O)n(Cc3ccc(CN4CCC4)cc3)c2n1` [Example 2, 2-(2-methoxyethoxy)-9-(4-(azetidin-1-ylmethyl)benzyl)-7,9-dihydro-8H-purin-8-one] are more than 100 µM and 10 to 100 µM.
On to `COCCOc1ncc2[nH]c(=O)n(Cc3cccc(CN4CCCCC4)c3)c2n1` [Example 20, 2-(2-methoxyethoxy)-9-(3-(piperidin-1-ylmethyl)benzyl)-7,9-dihydro-8H-purin-8-one], for which the half-maximal effective concentration (EC50) at hTLR8 was more than 100 µM; at hTLR7, 10 to 100 µM.
`COCCOc1ncc2[nH]c(=O)n(Cc3ccc(CN4CC5CCC4C5)cc3)c2n1` (stereo not shown) [Example 13, 2-(2-methoxyethoxy)-9-(4-((2-aza-bicyclo[2,2,1]heptan-2-yl)methyl)benzyl)-7,9-dihydro-8H-purin-8-one]: the EC50 on hTLR8 is more than 100 µM; on hTLR7, 1 to 10 µM.
As to `COCCOc1ncc2[nH]c(=O)n(Cc3ccc(CN4CCCCCC4)cc3)c2n1` [Example 4, 2-(2-methoxyethoxy)-9-(4-(azepan-1-ylmethyl)benzyl)-7,9-dihydro-8H-purin-8-one], the EC50 is more than 100 µM at hTLR8 and 1 to 10 µM at hTLR7.
With `COCCOc1ncc2[nH]c(=O)n(Cc3cccc(CN4CCN(C)CC4)c3)c2n1` [Example 25, 2-(2-methoxyethoxy)-9-(3-((4-methylpiperazin-1-yl)methyl)benzyl)-7,9-dihydro-8H-purin-8-one], the results for the half-maximal effective concentration (EC50) on hTLR8 and on hTLR7 were more than 100 µM and 10 to 100 µM, respectively.
In the same order, the values of `COCCOc1ncc2[nH]c(=O)n(Cc3cccc(CN4CCC4)c3)c2n1` [Example 19, 2-(2-methoxyethoxy)-9-(3-(azetidin-1-ylmethyl)benzyl)-7,9-dihydro-8H-purin-8-one] are more than 100 µM and 1 to 10 µM.
